Results published in ChEMBL document CHEMBL5257151, “Design, synthesis, and pharmacological evaluation of N-(3-carbamoyl-1H-pyrazol-4-yl)-1,3-oxazole-4-carboxamide derivatives as interleukin-1 receptor-associated kinase 4 inhibitors with reduced potential for cytochrome P450 1A2 induction” (Bioorg Med Chem, 2023).

Target: T1, Interleukin-1 receptor-associated kinase 4 (Homo sapiens, UniProt Q9NWZ3)
T1 sequence (Q9NWZ3 whole entry): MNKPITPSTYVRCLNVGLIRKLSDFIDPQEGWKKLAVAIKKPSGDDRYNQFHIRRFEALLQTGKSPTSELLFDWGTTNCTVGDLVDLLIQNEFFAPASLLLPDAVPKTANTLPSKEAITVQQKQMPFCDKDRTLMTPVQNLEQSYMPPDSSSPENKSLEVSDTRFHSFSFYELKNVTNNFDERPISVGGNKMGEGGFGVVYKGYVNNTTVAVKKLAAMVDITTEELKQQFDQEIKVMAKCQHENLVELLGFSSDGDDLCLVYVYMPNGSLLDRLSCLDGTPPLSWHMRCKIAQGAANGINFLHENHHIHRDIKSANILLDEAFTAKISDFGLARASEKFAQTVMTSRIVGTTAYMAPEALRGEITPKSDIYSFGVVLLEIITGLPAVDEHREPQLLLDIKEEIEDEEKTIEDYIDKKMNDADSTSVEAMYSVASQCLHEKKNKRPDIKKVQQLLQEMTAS
Experiment: Inhibition of human IRAK4 using biotinylated FGLARFSRFAGSSPSQSSMVARTQTVRGT peptide as substrate incubated for 1 hr in presence of ATP by ELISA assay
Conditions: not given

Row | Structure (SMILES) | IC50
1 | Cc1cc(-c2nc(C(=O)Nc3c[nH]nc3C(N)=O)co2)ccn1 | 120 nM
2 | NC(=O)c1nn(C2CCOCC2)cc1NC(=O)c1coc(-c2ccncc2F)n1 | 82 nM
3 | CCc1cc(-c2nc(C(=O)Nc3cn(C4CCOCC4)nc3C(N)=O)co2)ccn1 | 14 nM
4 | Cc1cc(-c2nc(C(=O)Nc3cn(CC(C)C)nc3C(N)=O)co2)ccn1 | 48 nM
5 | CCn1cc(NC(=O)c2coc(-c3ccnc(C)c3)n2)c(C(N)=O)n1 | 16 nM
6 | NC(=O)c1nn(C2CCOCC2)cc1NC(=O)c1coc(-c2ccnc(C3CC3)c2)n1 | 67 nM
7 | Cc1cc(-c2ccc(C(=O)Nc3cn(C4CCOCC4)nc3C(N)=O)o2)ccn1 | 13 nM
8 | NC(=O)c1nn(C2CCOCC2)cc1NC(=O)c1coc(-c2ccc(F)cc2)n1 | 26 nM
9 | COCCn1cc(NC(=O)c2coc(-c3ccnc(C)c3)n2)c(C(N)=O)n1 | 18 nM
10 | CCn1cc(NC(=O)c2csc(-c3ccncc3)n2)c(C(N)=O)n1 | 20 nM
11 | Cc1cc(-c2nc(C(=O)Nc3cn(C4CCN(C)CC4)nc3C(N)=O)co2)ccn1 | 18 nM
12 | CCCCn1cc(NC(=O)c2coc(-c3ccnc(C)c3)n2)c(C(N)=O)n1 | 25 nM
13 | Cc1cc(-n2ccc(C(=O)Nc3cn(C4CCOCC4)nc3C(N)=O)n2)ccn1 | 24 nM
14 | CC(=O)N1CCC(n2cc(NC(=O)c3coc(-c4ccnc(C)c4)n3)c(C(N)=O)n2)CC1 | 17 nM
15 | Cc1cc(-c2nc(C(=O)Nc3cn(C)nc3C(N)=O)co2)ccn1 | 16 nM
16 | Cc1cc(-c2nc(C(=O)Nc3cn(C4CCOC4)nc3C(N)=O)co2)ccn1 (centres undefined) | 30 nM
17 | Cc1cc(-c2nc(C(=O)Nc3cn(CC4(C)COC4)nc3C(N)=O)co2)ccn1 | 150 nM
18 | Cn1cc(-c2nc(C(=O)Nc3cn(C4CCOCC4)nc3C(N)=O)co2)ccc1=O | 32 nM
19 | Cc1cc(-c2nc(C(=O)Nc3cn(CC4CCOC4)nc3C(N)=O)co2)ccn1 (centres undefined) | 34 nM
20 | Cc1cc(-c2ncc(C(=O)Nc3cn(C4CCOCC4)nc3C(N)=O)o2)ccn1 | 80 nM
21 | NC(=O)c1nn(C2CCOCC2)cc1NC(=O)c1coc(-c2ccnc(CO)c2)n1 | 52 nM

Target: T2, CYP1A2 (Homo sapiens, UniProt P05177)
T2 sequence (P05177 whole entry): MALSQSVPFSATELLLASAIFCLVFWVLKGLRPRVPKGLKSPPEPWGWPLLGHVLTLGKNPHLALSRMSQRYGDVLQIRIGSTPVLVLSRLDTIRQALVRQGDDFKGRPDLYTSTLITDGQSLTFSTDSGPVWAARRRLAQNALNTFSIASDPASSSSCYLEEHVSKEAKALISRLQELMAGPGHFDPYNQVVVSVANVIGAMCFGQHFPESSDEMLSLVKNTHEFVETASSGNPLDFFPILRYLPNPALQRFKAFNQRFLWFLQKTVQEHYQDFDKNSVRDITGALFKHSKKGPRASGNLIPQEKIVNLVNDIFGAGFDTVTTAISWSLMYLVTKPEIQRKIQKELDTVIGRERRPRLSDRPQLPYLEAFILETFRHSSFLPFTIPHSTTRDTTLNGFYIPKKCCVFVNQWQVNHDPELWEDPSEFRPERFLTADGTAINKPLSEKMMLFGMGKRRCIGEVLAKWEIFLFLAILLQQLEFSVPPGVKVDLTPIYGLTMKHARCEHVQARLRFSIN
Experiment: Reversible inhibition of CYP1A2 in human liver microsomes assessed as residual activity at 5 uM using phenacetin as substrate preincubated for 30 mins followed by substrate addition measured after 20 mins by LC-MS/MS analysis relative to control
Assay type: ADME, Microsome
Conditions: probe phenacetin, time 50 min, read-out: Activity

Row | Structure (SMILES) | activity at 20 min, 5 µM
22 | CCn1cc(NC(=O)c2coc(-c3ccnc(C)c3)n2)c(C(N)=O)n1 | 47%
23 | CCn1cc(NC(=O)c2csc(-c3ccncc3)n2)c(C(N)=O)n1 | 4%
24 | CCn1cc(NC(=O)c2coc(-c3ccncc3)n2)c(C(N)=O)n1 | 6%

Target: T3, CYP2C8 (Homo sapiens, UniProt P10632)
T3 sequence (P10632 whole entry): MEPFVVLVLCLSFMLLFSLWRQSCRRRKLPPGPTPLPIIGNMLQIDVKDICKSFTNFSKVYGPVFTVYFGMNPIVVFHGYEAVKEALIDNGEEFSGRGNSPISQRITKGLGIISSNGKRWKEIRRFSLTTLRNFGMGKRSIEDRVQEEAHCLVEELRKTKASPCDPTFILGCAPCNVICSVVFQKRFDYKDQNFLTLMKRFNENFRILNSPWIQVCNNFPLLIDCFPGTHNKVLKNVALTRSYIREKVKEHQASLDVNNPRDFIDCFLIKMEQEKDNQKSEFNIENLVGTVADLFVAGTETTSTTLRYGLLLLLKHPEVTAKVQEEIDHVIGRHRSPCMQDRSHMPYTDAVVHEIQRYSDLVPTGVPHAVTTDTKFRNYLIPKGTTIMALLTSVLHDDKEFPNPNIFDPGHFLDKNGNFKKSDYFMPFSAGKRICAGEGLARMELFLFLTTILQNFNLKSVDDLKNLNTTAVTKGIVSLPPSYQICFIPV
Experiment: Reversible inhibition of CYP2C8 in human liver microsomes assessed as residual activity at 5 uM using amodiaquine as substrate preincubated for 30 mins followed by substrate addition measured after 20 mins by LC-MS/MS analysis relative to control
Assay type: ADME, Microsome
Conditions: probe amodiaquine, time 50 min, read-out: Activity

Row | Structure (SMILES) | activity at 20 min, 5 µM
25 | CCn1cc(NC(=O)c2coc(-c3ccnc(C)c3)n2)c(C(N)=O)n1 | 103%
26 | CCn1cc(NC(=O)c2csc(-c3ccncc3)n2)c(C(N)=O)n1 | 70%
27 | CCn1cc(NC(=O)c2coc(-c3ccncc3)n2)c(C(N)=O)n1 | 103%

Target: CYP2C9 (Homo sapiens, UniProt P11712)
Experiment: Reversible inhibition of CYP2C9 in human liver microsomes assessed as residual activity at 5 uM using diclofenac as substrate preincubated for 30 mins followed by substrate addition measured after 20 mins by LC-MS/MS analysis relative to control
Assay type: ADME, Microsome
Conditions: probe diclofenac, time 50 min, read-out: Activity

Sequence of CYP2C9 (P11712 whole entry): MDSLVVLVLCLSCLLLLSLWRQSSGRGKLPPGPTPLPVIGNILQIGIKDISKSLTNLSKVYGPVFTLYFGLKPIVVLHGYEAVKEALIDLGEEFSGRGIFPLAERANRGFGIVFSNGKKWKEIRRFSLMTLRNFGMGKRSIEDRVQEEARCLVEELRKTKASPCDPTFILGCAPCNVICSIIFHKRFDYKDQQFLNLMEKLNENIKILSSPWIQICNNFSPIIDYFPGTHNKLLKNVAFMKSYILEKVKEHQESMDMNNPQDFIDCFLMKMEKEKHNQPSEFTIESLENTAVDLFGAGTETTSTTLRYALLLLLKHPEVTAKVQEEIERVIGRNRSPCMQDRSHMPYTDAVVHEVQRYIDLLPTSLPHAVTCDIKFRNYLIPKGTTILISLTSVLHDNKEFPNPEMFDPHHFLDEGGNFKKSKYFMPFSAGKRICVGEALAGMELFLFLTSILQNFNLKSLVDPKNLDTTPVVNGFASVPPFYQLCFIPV

Row | Structure (SMILES) | activity at 20 min, 5 µM
28 | CCn1cc(NC(=O)c2coc(-c3ccnc(C)c3)n2)c(C(N)=O)n1 | 98%
29 | CCn1cc(NC(=O)c2csc(-c3ccncc3)n2)c(C(N)=O)n1 | 56%
30 | CCn1cc(NC(=O)c2coc(-c3ccncc3)n2)c(C(N)=O)n1 | 59%

Target: T4, CYP3A4 (Homo sapiens, UniProt P08684)
Experiment: Reversible inhibition of CYP3A4 in human liver microsomes assessed as residual activity at 5 uM using midazolam as substrate preincubated for 30 mins followed by substrate addition measured after 20 mins by LC-MS/MS analysis relative to control
Assay type: ADME, Microsome
Conditions: probe midazolam, time 50 min, read-out: Activity

T4 sequence (P08684 whole entry): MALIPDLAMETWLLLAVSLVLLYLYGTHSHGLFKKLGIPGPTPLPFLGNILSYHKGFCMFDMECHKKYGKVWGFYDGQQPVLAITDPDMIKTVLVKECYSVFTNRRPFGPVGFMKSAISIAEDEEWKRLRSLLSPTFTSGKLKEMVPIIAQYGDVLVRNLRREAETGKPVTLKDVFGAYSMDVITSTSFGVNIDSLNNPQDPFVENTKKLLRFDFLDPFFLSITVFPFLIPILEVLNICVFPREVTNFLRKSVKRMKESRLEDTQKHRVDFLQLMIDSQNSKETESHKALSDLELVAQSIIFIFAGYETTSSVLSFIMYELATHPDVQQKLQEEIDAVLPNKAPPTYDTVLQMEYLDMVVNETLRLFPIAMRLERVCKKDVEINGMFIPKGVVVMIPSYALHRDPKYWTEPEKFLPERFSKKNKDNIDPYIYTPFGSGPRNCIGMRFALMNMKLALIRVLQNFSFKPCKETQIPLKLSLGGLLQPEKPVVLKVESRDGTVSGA

Row | Structure (SMILES) | activity at 20 min, 5 µM
31 | CCn1cc(NC(=O)c2coc(-c3ccnc(C)c3)n2)c(C(N)=O)n1 | 100%
32 | CCn1cc(NC(=O)c2csc(-c3ccncc3)n2)c(C(N)=O)n1 | 74%
33 | CCn1cc(NC(=O)c2coc(-c3ccncc3)n2)c(C(N)=O)n1 | 70%

Target: T4, CYP3A4
Experiment: Time dependent inhibition of CYP3A4 in human liver microsomes assessed as residual activity at 5 uM using midazolam as substrate preincubated for 30 mins followed by substrate addition measured after 20 mins by LC-MS/MS analysis relative to control
Assay type: ADME, Microsome
Conditions: probe midazolam, read-out: Activity

Row | Structure (SMILES) | activity at 20 min, 5 µM
34 | CCn1cc(NC(=O)c2coc(-c3ccnc(C)c3)n2)c(C(N)=O)n1 | 108%
35 | CCn1cc(NC(=O)c2csc(-c3ccncc3)n2)c(C(N)=O)n1 | 78%
36 | CCn1cc(NC(=O)c2coc(-c3ccncc3)n2)c(C(N)=O)n1 | 89%

Tested on: CYP1A2
Experiment: Induction of CYP1A2 mRNA expression in human HepaRG cells assessed as fold change at 7.5 uM incubated for 48 hrs
Assay type: ADME, cell-based
Conditions: read-out: FC

Row | Structure (SMILES) | fold induction at 48 h, 7.5 µM
37 | Cc1cc(-c2nc(C(=O)Nc3cn(C)nc3C(N)=O)co2)ccn1 | 21

Tested on: CYP1A2
Experiment: Induction of CYP1A2 mRNA expression in human HepaRG cells assessed as fold change at 5 uM incubated for 48 hrs
Assay type: ADME, cell-based
Conditions: read-out: FC

Row | Structure (SMILES) | fold induction at 48 h, 5 µM
38 | CCn1cc(NC(=O)c2coc(-c3ccnc(C)c3)n2)c(C(N)=O)n1 | 16
39 | CCCCn1cc(NC(=O)c2coc(-c3ccnc(C)c3)n2)c(C(N)=O)n1 | 8.9

Tested on: CYP1A2
Experiment: Induction of CYP1A2 mRNA expression in human HepaRG cells assessed as fold change at 15 uM incubated for 48 hrs
Assay type: ADME, cell-based
Conditions: read-out: FC

Row | Structure (SMILES) | fold induction at 48 h, 15 µM
40 | Cc1cc(-c2nc(C(=O)Nc3cn(CC(C)C)nc3C(N)=O)co2)ccn1 | 4
41 | Cc1cc(-c2nc(C(=O)Nc3cn(C4CCN(C)CC4)nc3C(N)=O)co2)ccn1 | 3.6
42 | CC(=O)N1CCC(n2cc(NC(=O)c3coc(-c4ccnc(C)c4)n3)c(C(N)=O)n2)CC1 | 3.2
43 | Cc1cc(-c2nc(C(=O)Nc3cn(CC4CCOC4)nc3C(N)=O)co2)ccn1 (centres undefined) | 4.5

Tested on: CYP1A2
Experiment: Induction of CYP1A2 mRNA expression in human HepaRG cells assessed as fold change at 10 uM incubated for 48 hrs
Assay type: ADME, cell-based
Conditions: read-out: FC

Row | Structure (SMILES) | fold induction at 48 h, 10 µM
44 | COCCn1cc(NC(=O)c2coc(-c3ccnc(C)c3)n2)c(C(N)=O)n1 | 15

Tested on: CYP1A2
Experiment: Induction of CYP1A2 mRNA expression in human HepaRG cells assessed as fold change at 30 uM incubated for 48 hrs
Assay type: ADME, cell-based
Conditions: read-out: FC

Row | Structure (SMILES) | fold induction at 48 h, 30 µM
45 | Cc1cc(-c2nc(C(=O)Nc3cn(C4CCS(=O)(=O)CC4)nc3C(N)=O)co2)ccn1 | 3.5
46 | Cc1cc(-c2nc(C(=O)Nc3cn(C4CCOC4)nc3C(N)=O)co2)ccn1 (centres undefined) | 10

Tested on: not listed separately
Experiment: Inhibition of IL-1beta stimulated IL-6 production in human A549 cells pre-incubated for 1 hr followed by overnight stimulation by ELISA analysis
Assay type: functional, cell-based
Conditions: not given

Row | Structure (SMILES) | IC50
47 | Cc1cc(-c2nc(C(=O)Nc3cn(C4CCS(=O)(=O)CC4)nc3C(N)=O)co2)ccn1 | 1600 nM
48 | Cc1cc(-c2nc(C(=O)Nc3cn(C4CCN(C)CC4)nc3C(N)=O)co2)ccn1 | 450 nM
49 | CC(=O)N1CCC(n2cc(NC(=O)c3coc(-c4ccnc(C)c4)n3)c(C(N)=O)n2)CC1 | 460 nM
